Experimental data reported in ChEMBL document CHEMBL2429768, “Eco-friendly synthesis and antimicrobial activities of substituted-5-(1H-indol-3-yl)methylene)-2,2-dimethyl-1,3-dioxane-4,6-dione derivatives” (2013).
Values after ≈ are worked out from the molar mass of the structure shown.

What was measured:
Format in all cases: functional
Staphylococcus aureus [1] = assay: Antibacterial activity against Staphylococcus aureus ATCC 6538 at 50 ug/ml after 24 hrs by agar well diffusion method; conditions: ATCC 6538, 24 h, read-out: DIZ
Fusarium oxysporum [2] = assay: Antifungal activity against Fusarium oxysporum after 72 hrs by agar well diffusion method
Aspergillus flavus [3] = assay: Antifungal activity against Aspergillus flavus at 50 ug/ml after 72 hrs by agar well diffusion method; conditions: read-out: DIZ
Escherichia coli [4] = assay: Antibacterial activity against Escherichia coli ATCC 8739 at 200 ug/ml after 24 hrs by agar well diffusion method; conditions: ATCC 8739, 24 h, read-out: DIZ
Aspergillus niger [5] = assay: Antifungal activity against Aspergillus niger after 72 hrs by agar well diffusion method
Escherichia coli [6] = assay: Antibacterial activity against Escherichia coli ATCC 8739 at 500 ug/ml after 24 hrs by agar well diffusion method; conditions: ATCC 8739, 24 h, read-out: DIZ
Fusarium oxysporum [7] = assay: Antifungal activity against Fusarium oxysporum at 300 ug/ml after 72 hrs by agar well diffusion method; conditions: read-out: DIZ
Staphylococcus aureus [8] = assay: Antibacterial activity against Staphylococcus aureus ATCC 6538 at 200 ug/ml after 24 hrs by agar well diffusion method; conditions: ATCC 6538, 24 h, read-out: DIZ
Rhizoctonia solani [9] = assay: Antifungal activity against Rhizoctonia solani at 500 ug/ml after 72 hrs by agar well diffusion method; conditions: read-out: DIZ
Aspergillus flavus [10] = assay: Antifungal activity against Aspergillus flavus at 300 ug/ml after 72 hrs by agar well diffusion method; conditions: read-out: DIZ
Fusarium oxysporum [11] = assay: Antifungal activity against Fusarium oxysporum at 200 ug/ml after 72 hrs by agar well diffusion method; conditions: read-out: DIZ
Aspergillus niger [12] = assay: Antifungal activity against Aspergillus niger at 500 ug/ml after 72 hrs by agar well diffusion method; conditions: read-out: DIZ
Escherichia coli [13] = assay: Antibacterial activity against Escherichia coli ATCC 8739 at 50 ug/ml after 24 hrs by agar well diffusion method; conditions: ATCC 8739, 24 h, read-out: DIZ
Rhizoctonia solani [14] = assay: Antifungal activity against Rhizoctonia solani at 100 ug/ml after 72 hrs by agar well diffusion method; conditions: read-out: DIZ
Escherichia coli [15] = assay: Antibacterial activity against Escherichia coli ATCC 8739 at 100 ug/ml after 24 hrs by agar well diffusion method; conditions: ATCC 8739, 24 h, read-out: DIZ
Aspergillus niger [16] = assay: Antifungal activity against Aspergillus niger at 300 ug/ml after 72 hrs by agar well diffusion method; conditions: read-out: DIZ
Bacillus subtilis [17] = assay: Antibacterial activity against Bacillus subtilis at 200 ug/ml after 24 hrs by agar well diffusion method; conditions: read-out: DIZ
Rhizoctonia solani [18] = assay: Antifungal activity against Rhizoctonia solani at 50 ug/ml after 72 hrs by agar well diffusion method; conditions: read-out: DIZ
Rhizoctonia solani [19] = assay: Antifungal activity against Rhizoctonia solani at 300 ug/ml after 72 hrs by agar well diffusion method; conditions: read-out: DIZ
Klebsiella pneumoniae [20] = assay: Antibacterial activity against Klebsiella pneumoniae at 500 ug/ml after 24 hrs by agar well diffusion method; conditions: read-out: DIZ
Aspergillus niger [21] = assay: Antifungal activity against Aspergillus niger at 200 ug/ml after 72 hrs by agar well diffusion method; conditions: read-out: DIZ
Bacillus subtilis [22] = assay: Antibacterial activity against Bacillus subtilis after 24 hrs by agar well diffusion method
Fusarium oxysporum [23] = assay: Antifungal activity against Fusarium oxysporum at 50 ug/ml after 72 hrs by agar well diffusion method; conditions: read-out: DIZ
Escherichia coli [24] = assay: Antibacterial activity against Escherichia coli ATCC 8739 after 24 hrs by agar well diffusion method; conditions: ATCC 8739, 24 h
Aspergillus niger [25] = assay: Antifungal activity against Aspergillus niger at 50 ug/ml after 72 hrs by agar well diffusion method; conditions: read-out: DIZ
Klebsiella pneumoniae [26] = assay: Antibacterial activity against Klebsiella pneumoniae at 200 ug/ml after 24 hrs by agar well diffusion method; conditions: read-out: DIZ
Aspergillus flavus [27] = assay: Antifungal activity against Aspergillus flavus after 72 hrs by agar well diffusion method
Fusarium oxysporum [28] = assay: Antifungal activity against Fusarium oxysporum at 100 ug/ml after 72 hrs by agar well diffusion method; conditions: read-out: DIZ
Staphylococcus aureus [29] = assay: Antibacterial activity against Staphylococcus aureus ATCC 6538 after 24 hrs by agar well diffusion method; conditions: ATCC 6538, 24 h
Staphylococcus aureus [30] = assay: Antibacterial activity against Staphylococcus aureus ATCC 6538 at 300 ug/ml after 24 hrs by agar well diffusion method; conditions: ATCC 6538, 24 h, read-out: DIZ
Aspergillus flavus [31] = assay: Antifungal activity against Aspergillus flavus at 100 ug/ml after 72 hrs by agar well diffusion method; conditions: read-out: DIZ
Aspergillus niger [32] = assay: Antifungal activity against Aspergillus niger at 100 ug/ml after 72 hrs by agar well diffusion method; conditions: read-out: DIZ
Bacillus subtilis [33] = assay: Antibacterial activity against Bacillus subtilis at 500 ug/ml after 24 hrs by agar well diffusion method; conditions: read-out: DIZ
Staphylococcus aureus [34] = assay: Antibacterial activity against Staphylococcus aureus ATCC 6538 at 500 ug/ml after 24 hrs by agar well diffusion method; conditions: ATCC 6538, 24 h, read-out: DIZ
Klebsiella pneumoniae [35] = assay: Antibacterial activity against Klebsiella pneumoniae at 50 ug/ml after 24 hrs by agar well diffusion method; conditions: read-out: DIZ
Escherichia coli [36] = assay: Antibacterial activity against Escherichia coli ATCC 8739 at 300 ug/ml after 24 hrs by agar well diffusion method; conditions: ATCC 8739, 24 h, read-out: DIZ
Aspergillus flavus [37] = assay: Antifungal activity against Aspergillus flavus at 200 ug/ml after 72 hrs by agar well diffusion method; conditions: read-out: DIZ
Rhizoctonia solani [38] = assay: Antifungal activity against Rhizoctonia solani at 200 ug/ml after 72 hrs by agar well diffusion method; conditions: read-out: DIZ
Fusarium oxysporum [39] = assay: Antifungal activity against Fusarium oxysporum at 500 ug/ml after 72 hrs by agar well diffusion method; conditions: read-out: DIZ
Klebsiella pneumoniae [40] = assay: Antibacterial activity against Klebsiella pneumoniae at 300 ug/ml after 24 hrs by agar well diffusion method; conditions: read-out: DIZ
Klebsiella pneumoniae [41] = assay: Antibacterial activity against Klebsiella pneumoniae after 24 hrs by agar well diffusion method
Klebsiella pneumoniae [42] = assay: Antibacterial activity against Klebsiella pneumoniae at 100 ug/ml after 24 hrs by agar well diffusion method; conditions: read-out: DIZ
Bacillus subtilis [43] = assay: Antibacterial activity against Bacillus subtilis at 300 ug/ml after 24 hrs by agar well diffusion method; conditions: read-out: DIZ
Rhizoctonia solani [44] = assay: Antifungal activity against Rhizoctonia solani after 72 hrs by agar well diffusion method
Aspergillus flavus [45] = assay: Antifungal activity against Aspergillus flavus at 500 ug/ml after 72 hrs by agar well diffusion method; conditions: read-out: DIZ
Bacillus subtilis [46] = assay: Antibacterial activity against Bacillus subtilis at 100 ug/ml after 24 hrs by agar well diffusion method; conditions: read-out: DIZ
Bacillus subtilis [47] = assay: Antibacterial activity against Bacillus subtilis at 50 ug/ml after 24 hrs by agar well diffusion method; conditions: read-out: DIZ
Staphylococcus aureus [48] = assay: Antibacterial activity against Staphylococcus aureus ATCC 6538 at 100 ug/ml after 24 hrs by agar well diffusion method; conditions: ATCC 6538, 24 h, read-out: DIZ

CCn1cc(C=C2C(=O)OC(C)(C)OC2=O)c2cc(Br)ccc21
zone of inhibition at 50 µg/mL (Staphylococcus aureus [1]): 5 mm
MIC (Fusarium oxysporum [2]): 35 µg/mL (≈ 92.5 µM)
zone of inhibition at 50 µg/mL (Aspergillus flavus [3]): 4 mm
zone of inhibition at 200 µg/mL (Escherichia coli [4]): 13 mm
MIC (Aspergillus niger [5]): 40 µg/mL (≈ 106 µM)
zone of inhibition at 500 µg/mL (Escherichia coli [6]): 25 mm
zone of inhibition at 300 µg/mL (Fusarium oxysporum [7]): 21 mm
zone of inhibition at 200 µg/mL (Staphylococcus aureus [8]): 11 mm
zone of inhibition at 500 µg/mL (Rhizoctonia solani [9]): 29 mm
zone of inhibition at 300 µg/mL (Aspergillus flavus [10]): 15 mm
zone of inhibition at 200 µg/mL (Fusarium oxysporum [11]): 16 mm
zone of inhibition at 500 µg/mL (Aspergillus niger [12]): 25 mm
zone of inhibition at 50 µg/mL (Escherichia coli [13]): 6 mm
zone of inhibition at 100 µg/mL (Rhizoctonia solani [14]): 12 mm
zone of inhibition at 100 µg/mL (Escherichia coli [15]): 10 mm
zone of inhibition at 300 µg/mL (Aspergillus niger [16]): 18 mm
zone of inhibition at 200 µg/mL (Bacillus subtilis [17]): 11 mm
zone of inhibition at 50 µg/mL (Rhizoctonia solani [18]): 7 mm
zone of inhibition at 300 µg/mL (Rhizoctonia solani [19]): 21 mm
zone of inhibition at 500 µg/mL (Klebsiella pneumoniae [20]): 30 mm
zone of inhibition at 200 µg/mL (Aspergillus niger [21]): 14 mm
MIC (Bacillus subtilis [22]): 30 µg/mL (≈ 79.3 µM)
zone of inhibition at 50 µg/mL (Fusarium oxysporum [23]): 7 mm
MIC (Escherichia coli [24]): 15 µg/mL (≈ 39.7 µM)
zone of inhibition at 50 µg/mL (Aspergillus niger [25]): 6 mm
zone of inhibition at 200 µg/mL (Klebsiella pneumoniae [26]): 14 mm
MIC (Aspergillus flavus [27]): 40 µg/mL (≈ 106 µM)
zone of inhibition at 100 µg/mL (Fusarium oxysporum [28]): 12 mm
MIC (Staphylococcus aureus [29]): 25 µg/mL (≈ 66.1 µM)
zone of inhibition at 300 µg/mL (Staphylococcus aureus [30]): 15 mm
zone of inhibition at 100 µg/mL (Aspergillus flavus [31]): 9 mm
zone of inhibition at 100 µg/mL (Aspergillus niger [32]): 10 mm
zone of inhibition at 500 µg/mL (Bacillus subtilis [33]): 23 mm
zone of inhibition at 500 µg/mL (Staphylococcus aureus [34]): 23 mm
zone of inhibition at 50 µg/mL (Klebsiella pneumoniae [35]): 8.4 mm
zone of inhibition at 300 µg/mL (Escherichia coli [36]): 17 mm
zone of inhibition at 200 µg/mL (Aspergillus flavus [37]): 12 mm
zone of inhibition at 200 µg/mL (Rhizoctonia solani [38]): 16 mm
zone of inhibition at 500 µg/mL (Fusarium oxysporum [39]): 29 mm
zone of inhibition at 300 µg/mL (Klebsiella pneumoniae [40]): 21 mm
MIC (Klebsiella pneumoniae [41]): 15 µg/mL (≈ 39.7 µM)
zone of inhibition at 100 µg/mL (Klebsiella pneumoniae [42]): 13.4 mm
zone of inhibition at 300 µg/mL (Bacillus subtilis [43]): 15 mm
MIC (Rhizoctonia solani [44]): 35 µg/mL (≈ 92.5 µM)
zone of inhibition at 500 µg/mL (Aspergillus flavus [45]): 23 mm
zone of inhibition at 100 µg/mL (Bacillus subtilis [46]): 9.5 mm
zone of inhibition at 50 µg/mL (Bacillus subtilis [47]): 5 mm
zone of inhibition at 100 µg/mL (Staphylococcus aureus [48]): 9.5 mm
